ChEMBL document CHEMBL4330144, “A mitochondria-targeted organic arsenical accelerates mitochondrial metabolic disorder and function injury” (Bioorg Med Chem, 2019)
Activity calls are given as the source filed them. The calls are words filed in the database; no cut-off is given here.

Tests used:
NB-4 [1] = assay: Induction of apoptosis in human NB4 cells assessed as necrotic cells after 24 hrs by Annexin V-FITC/propidium iodide staining based flow cytometry (reference value: 0.1%); assay type: functional
Rattus norvegicus [2] = species: Rattus norvegicus; assay: Inhibition of ETC1 in isolated Wistar rat mitochondria assessed as reduction in NADH oxidation at 6 to 24 uM preincubated for 3 mins and measured after 5 mins by DB reagent based assay
Rattus norvegicus [3] = species: Rattus norvegicus; assay: Induction of mitochondrial membrane potential loss in isolated Wistar rat mitochondria assessed as decline phase rate constant at 25 uM using pyruvate as substrate up to 3 hrs by microcalorimetry (reference value: -24.13 to -20.47 10^-3/min); assay type: functional
NB-4 [4] = assay: Induction of apoptosis in human NB4 cells assessed as live cells after 24 hrs by Annexin V-FITC/propidium iodide staining based flow cytometry (reference value: 92%); assay type: functional
NB-4 [5] = assay: Induction of apoptosis in human NB4 cells assessed as decrease in cell size at 0.6 to 1.2 uM after 24 hrs by Hoechst 33342/propidium iodide staining based confocal microscopic method; assay type: functional
HeLa = assay: Cytotoxicity against human HeLa cells after 48 hrs by MTT assay; assay type: functional, cell-based
NB-4 [6] = assay: Induction of mitochondrial membrane potential loss in human NB4 cells at 0.6 uM after 6 hrs by JC1 staining based flow cytometry (reference value: 27.7%); assay type: functional
NB-4 [7] = assay: Induction of apoptosis in human NB4 cells assessed as nuclear condensation at 0.6 to 1.2 uM after 24 hrs by Hoechst 33342/propidium iodide staining based confocal microscopic method; assay type: functional, cell-based
NB-4 [8] = assay: Induction of apoptosis in human NB4 cells assessed as late apoptotic cells after 24 hrs by Annexin V-FITC/propidium iodide staining based flow cytometry (reference value: 2.9%); assay type: functional
NB-4 [9] = assay: Induction of apoptosis in human NB4 cells assessed as necrotic cells after 24 hrs in presence of Z-VAD-fmk by Annexin V-FITC/propidium iodide staining based flow cytometry (reference value: 0.1%); assay type: functional
NB-4 [10] = assay: Reduction in cell viability in human NB4 cells up to 2.4 uM up to 24 hrs by MTT assay; assay type: functional, cell-based
Rattus norvegicus [11] = species: Rattus norvegicus; assay: Inhibition of ETC4 in isolated Wistar rat mitochondria assessed as decrease in cyochrome-c oxidation at 5 to 15 uM incubated for 3 to 5 mins and measured for up to 3 mins
Rattus norvegicus [12] = species: Rattus norvegicus; assay: Induction of mitochondrial membrane potential loss in isolated Wistar rat mitochondria assessed as maximum power output at 25 uM using pyruvate as substrate up to 3 hrs by microcalorimetry (reference value: 141.64 to 153.92 W); assay type: functional
NB-4 [13] = assay: Induction of ROS generation in human NB4 cells at 0.6 uM after 1 to 6 hrs by DCFH-DA staining based flow cytometry; assay type: functional, cell-based
Rattus norvegicus [14] = species: Rattus norvegicus; assay: Induction of mitochondrial membrane potential loss in isolated Wistar rat mitochondria assessed as maximum power output at 50 uM using pyruvate as substrate up to 3 hrs by microcalorimetry; assay type: functional
NB-4 [15] = assay: Induction of mitochondrial membrane potential loss in human NB4 cells at 0.3 to 2.4 uM after 24 hrs by JC-1 staining based confocal microscopic method; assay type: functional, cell-based
Rattus norvegicus [16] = species: Rattus norvegicus; assay: Induction of mitochondrial membrane potential loss in isolated Wistar rat mitochondria assessed as stationary increase phase rate constant at 50 uM using pyruvate as substrate up to 3 hrs by microcalorimetry; assay type: functional
Rattus norvegicus [17] = species: Rattus norvegicus; assay: Induction of inner mitochondrial membrane permeabilization in isolated Wistar rat mitochondria assessed as H+ permeabilization at 5 to 75 uM measured for 10 to 30 mins; assay type: functional
NB-4 [18] = assay: Induction of apoptosis in human NB4 cells assessed as live cells after 24 hrs in presence of Z-VAD-fmk by Annexin V-FITC/propidium iodide staining based flow cytometry (reference value: 92%); assay type: functional
Rattus norvegicus [19] = species: Rattus norvegicus; assay: Induction of mitochondrial membrane potential loss in isolated Wistar rat mitochondria assessed as activity recovery phase rate constant at 100 uM using pyruvate as substrate up to 3 hrs by microcalorimetry; assay type: functional
Rattus norvegicus [20] = species: Rattus norvegicus; assay: Induction of mitochondrial membrane potential loss in isolated Wistar rat mitochondria assessed as activity recovery phase rate constant at 50 uM using pyruvate as substrate up to 3 hrs by microcalorimetry; assay type: functional
NB-4 [21] = assay: Induction of decrease in intracellular total thiols level in human NB4 cells up to 1.2 uM up to 24 hrs; assay type: functional, cell-based
Rattus norvegicus [22] = species: Rattus norvegicus; assay: Induction of mitochondrial membrane potential loss in isolated Wistar rat mitochondria assessed as stationary increase phase rate constant at 25 uM using pyruvate as substrate up to 3 hrs by microcalorimetry (reference value: 1 to 1.18 10^-3/min); assay type: functional
NB-4 [23] = assay: Induction of apoptosis in human NB4 cells assessed as early apoptotic cells after 24 hrs in presence of Z-VAD-fmk by Annexin V-FITC/propidium iodide staining based flow cytometry (reference value: 5%); assay type: functional
NB-4 [24] = assay: Induction of ROS generation in human NB4 cells up to 1.2 uM up to 24 hrs by DCFH-DA staining based flow cytometry; assay type: functional, cell-based
Rattus norvegicus [25] = species: Rattus norvegicus; assay: Induction of mitochondrial membrane potential loss in isolated Wistar rat mitochondria assessed as decline phase rate constant at 50 uM using pyruvate as substrate up to 3 hrs by microcalorimetry; assay type: functional
Rattus norvegicus [26] = species: Rattus norvegicus; assay: Induction of mitochondrial membrane potential loss in isolated Wistar rat mitochondria assessed as total heat output at 100 uM using pyruvate as substrate up to 3 hrs by microcalorimetry; assay type: functional
[27] = molecular target: T1, Dihydrolipoyllysine-residue acetyltransferase component of pyruvate dehydrogenase complex, mitochondrial (Homo sapiens) (UniProt P10515); assay: Inhibition of PDHC-E2 activity in human NB4 cells up to 2.4 uM after 3 hrs; assay type: cell-based
T1 sequence (whole entry): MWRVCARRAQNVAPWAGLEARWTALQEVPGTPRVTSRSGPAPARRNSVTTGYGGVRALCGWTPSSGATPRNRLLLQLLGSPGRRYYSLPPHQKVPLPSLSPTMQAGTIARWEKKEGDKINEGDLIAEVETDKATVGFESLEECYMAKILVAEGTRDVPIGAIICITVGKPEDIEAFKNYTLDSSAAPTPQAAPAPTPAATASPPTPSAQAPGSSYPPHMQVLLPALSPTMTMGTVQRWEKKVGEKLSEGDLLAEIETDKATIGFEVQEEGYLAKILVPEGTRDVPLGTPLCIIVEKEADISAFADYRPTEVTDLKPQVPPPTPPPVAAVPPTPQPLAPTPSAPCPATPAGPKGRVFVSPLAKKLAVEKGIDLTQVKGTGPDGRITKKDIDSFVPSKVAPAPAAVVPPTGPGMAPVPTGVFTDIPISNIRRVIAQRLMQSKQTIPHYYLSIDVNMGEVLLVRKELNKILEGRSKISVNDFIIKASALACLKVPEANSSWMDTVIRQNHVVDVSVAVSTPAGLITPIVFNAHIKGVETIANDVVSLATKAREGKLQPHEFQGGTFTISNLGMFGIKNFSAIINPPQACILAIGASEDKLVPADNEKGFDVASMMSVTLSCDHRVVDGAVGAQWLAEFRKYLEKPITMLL

MCF7 = assay: Cytotoxicity against human MCF7 cells after 24 hrs by MTT assay; assay type: functional, cell-based; conditions: MCF7, 24 h
NB-4 [28] = assay: Induction of cytochrome-c release in human NB4 cells after 24 hrs by ELISA; assay type: functional, cell-based

Compound: O=C(CC[P+](c1ccccc1)(c1ccccc1)c1ccccc1)Nc1ccc([As]2SCCCS2)cc1.[Cl-]
- Activity (NB-4 [1]): 1.4%
- inhibition (Rattus norvegicus [2]): Active
- K (Rattus norvegicus [3]): -14.1 ×10⁻³ /min
- Activity (NB-4 [4]): 69.3%
- Activity (NB-4 [5]): Active
- IC50 (HeLa): 3.91 µM
- Activity (NB-4 [6]): 81.5%
- Activity (NB-4 [7]): Active
- Activity (NB-4 [8]): 16.2%
- Activity (NB-4 [9]): 0.2%
- Activity (NB-4 [10]): Active
- inhibition (Rattus norvegicus [11]): Active
- Activity (Rattus norvegicus [12]): 152 W
- Activity (NB-4 [13]): inactive
- Activity (Rattus norvegicus [14]): 107 W
- Activity (NB-4 [15]): Active
- K (Rattus norvegicus [16]): 0.46 ×10⁻³ /min
- Activity (Rattus norvegicus [17]): Active
- Activity (NB-4 [18]): 81.9%
- K (Rattus norvegicus [19]): 3.88 ×10⁻³ /min
- K (Rattus norvegicus [20]): 4.82 ×10⁻³ /min
- Activity (NB-4 [21]): Active
- K (Rattus norvegicus [22]): 0.72 ×10⁻³ /min
- Activity (NB-4 [23]): 12.7%
- Activity (NB-4 [24]): Active
- K (Rattus norvegicus [25]): -9.35 ×10⁻³ /min
- Activity (Rattus norvegicus [26]): 11.2 J
- inhibition [27]: Active
- IC50 (MCF7): 4.44 µM
- Activity (NB-4 [28]): Dose-dependent effect
